Reference: patent publication US20260060960A1, “GAMMA-SECRETASE INHIBITORS FOR USE IN THE TREATMENT OF INHERITED EPIDERMOLYSIS BULLOSA” (OSPEDALE PEDIATRICO BAMBINO GESU', priority 2022, published 2026)

Test system: α-SMA, TAGLN, CNN1, JAG1
Assay: Immunoblotting of myofibroblast/fibrotic markers in RDEB fibroblasts
Format: cell-based, human
Details: RDEB-FBs, 24 h, absence and presence of TGF-β1
Excerpt: Whole-cell lysates were obtained in radioimmunoprecipitation assay (RIPA) buffer (Sigma-Aldrich) supplemented with phosphatase- and protease inhibitors (Merck). Different amounts of protein lysates were run under reducing conditions by using 4-12% gradient precast gels (Thermo Fisher Scientific) or hand-casting polyacrylamide gels (4-8%), depending on the protein to be assayed. Amersham™ Protran® Premium nitrocellulose membranes (pore size 0.2 μm) (Merck) were immunoblotted with primary antibodies indicated in Table 3 and incubated with horseradish peroxidase-linked secondary antibodies.
Detection was performed using Cytiva ECL™ Prime Western Blotting System (Merck) or SuperSignal West Femto (Thermo Fisher Scientific), depending on the protein to be assayed. Antibody against Notch1 (all forms; clone bTAN20) was obtained from the Developmental Studies Hybridoma Bank (DSHB) at the University of Iowa (DSHB, Iowa City, IA, USA). GAPDH (clone 14C10), Jagged1 (clone 28H8) and NOTCH1 intracellular domain (clone D3B8) were obtained from Cell Signaling (Cell Signaling Technology Inc., Beverly, MA, USA). Antibodies against TAGLN (clone #859112) and CNN1 (clone #836701) were from R&D Systems (R&D Systems, Inc. Minneapolis, MN, USA). Antibody against α-SMA (clone 1A4) was purchased from Sigma-Aldrich. Antibody against lamin B1 (LMNB1) was from Abcam (Cambridge, UK). […]

CCC[C@H](N[C@H]1CCc2cc(F)cc(F)c2C1)C(=O)Nc1cn(C(C)(C)CNCC(C)(C)C)cn1 [PF-03084014, (S)-2-((S)-5,7-difluoro-1,2,3,4-tetrahydronaphthalen-3-ylamino)-N-(1-(2-methyl-1-(neopentylamino)propan-2-yl)-1H-imidazol-4-yl)pentanamide]
protein levels of contractile and fibrotic markers (immunoblotting): down-regulation of the prototypical contractile and fibrotic markers, including JAG1
